# Experimental data reported in patent US6969702B2, “Compounds and methods for increasing neurogenesis” (priority 2002, dated 2005).
# Marks after values point to notes of the source that are not given here. Bridge positions count the residues as written; N and C are the ends. Square brackets hold non-standard residues; d marks the D form. Ends that are not written are not given here. Peptide text beside a SMILES is read from it. d(pGlu) = O=C1CC[C@H](C(=O)O)N1
# Key:
# Adult neural stem cells = experiment: Flow cytometry for early neuronal marker Doublecortin; settings: for % Doublecortin-positive cells / Fold Induction (Doublecortin-positive cells): Table 6; for % Doublecortin-positive cells: 4 days; for Fold Induction (Doublecortin-positive cells): vs EGF/FGF
# [1] = system: cAMP activation in mouse adult neural stem cells; experiment: cAMP detection (HitHunter EFC Cyclic AMP Chemiluminescence Assay); settings: for Fold Induction cAMP: vs vehicle
# [2] = system: mouse adult neural stem cells; experiment: ATP-assay: proliferation (ATP levels) of neurosphere-derived cells; settings: for Fold Induction ATP: vs vehicle
# [3] = Table 2, 10 nM (cAMP concentration)
# [4] = Table 2, 100 nM (cAMP concentration)
# [5] = Table 2, 1 nM (cAMP concentration)
Molecule,% Doublecortin-positive cells (Adult neural stem cells; 100 nM),"cAMP (pmol/well) [1, 3]",Fold Induction (Doublecortin-positive cells) (Adult neural stem cells; 100 nM),"ATP (nM ATP/well) ([2]; Table 2, 100 nM, 4 days)",other results
C[C@H](NC(=O)[C@@H](Cc1c[nH]c2ccccc12)NC(=O)[C@@H](N)Cc1c[nH]cn1)C(=O)N[C@@H](Cc1c[nH]c2ccccc12)C(=O)N[C@H](Cc1ccccc1)C(=O)N[C@@H](CCCCN)C(N)=O [(D-Trp7.Ala8.D-Phe10)-α-Melanocyte stimulating hormone F: 6-11/GHRP] (H-H[dW]AW[dF]K-NH2; N-terminus and C-terminus assumed),5.3%,,,,
CSCC[C@@H]1NC(=O)[C@H](C)NC(=O)[C@H]([C@@H](C)O)NC(=O)CNC(=O)[C@H](CC(C)C)NC(=O)[C@H](CCCCN)NC(=O)[C@H](CCCNC(=N)N)NC(=O)[C@@H]2CSSC[C@@H]3NC(=O)[C@@H]4CCCN4C(=O)[C@H](C(C)C)NC(=O)[C@H](CCC(N)=O)NC(=O)[C@H](CCC(N)=O)NC(=O)CNC(=O)[C@H](CC(C)C)NC(=O)[C@@H]4CSSC[C@H](NC(=O)[C@H]([C@@H](C)O)NC(=O)[C@H](C)NC(=O)[C@H](CSSC[C@@H](C(=O)N[C@@H](CO)C(=O)N[C@@H](CCCNC(=N)N)C(=O)N[C@H](C(N)=O)[C@@H](C)O)NC(=O)[C@@H]5CCCN5C(=O)[C@H](CC(N)=O)NC1=O)NC(=O)[C@@H]1CCCN1C(=O)[C@H](CC(=O)O)NC(=O)[C@H](CSSC[C@H](N)C(=O)N[C@@H](C(C)C)C(=O)N[C@@H](CCCNC(=N)N)C(=O)N[C@@H](CC(C)C)C(=O)N[C@@H](Cc1c[nH]cn1)C(=O)N[C@@H](CCC(=O)O)C(=O)N[C@@H](CO)C(=O)N4)NC3=O)C(=O)N[C@@H](Cc1ccc(O)cc1)C(=O)N[C@H]1CSSC[C@H](NC(=O)[C@H](Cc3ccccc3)NC(=O)[C@H](C)NC(=O)[C@H](CC(N)=O)NC(=O)[C@H](Cc3ccccc3)NC(=O)[C@H](Cc3ccccc3)NC(=O)[C@H](CCCNC(=N)N)NC1=O)C(=O)N[C@@H](Cc1ccc(O)cc1)C(=O)N2 [Agouti Related Protein (87-132)-Amide (Human)],2.4%,0.5 ± 0.20 pmol/well,0.9 fold,,"Fold Induction cAMP ([1]; Table 2, 10 nM): 2.4* fold; ATP (nM ATP/well) ([2]; Table 2, 10 nM, 4 days): 11.2 ± 1.7 nM ATP/well; Fold Induction ATP ([2]; Table 2, 10 nM, 4 days): 1.4* fold"
CSCC[C@H](NC(=O)[C@H](Cc1ccc(O)cc1)NC(=O)[C@@H](N)CC(=O)O)C(=O)NCC(=O)N[C@@H](Cc1c[nH]c2ccccc12)C(=O)N[C@@H](CCSC)C(=O)N[C@@H](CC(=O)O)C(=O)N[C@@H](Cc1ccccc1)C(N)=O [Cholecystokinin Octapeptide [CCK(26-33)]],3.2%,,,,"cAMP (pmol/well) [1, 4]: 0.27 ± 0.06 pmol/well; ATP (nM ATP/well) ([2]; Table 2, 10 nM, 4 days): 9.8 ± 0.4 nM ATP/well"
NC(=O)CC[C@@H]1NC(=O)[C@H](Cc2ccccc2)NC(=O)[C@H](Cc2ccc(O)cc2)NC(=O)CCSSC[C@@H](C(=O)N2CCC[C@H]2C(=O)N[C@H](CCCN=C(N)N)C(=O)NCC(N)=O)NC(=O)[C@H](CC(N)=O)NC1=O [DDAVP],4.6%,0.27 ± 0.02 pmol/well,1.8 fold,11.5 ± 1.4 nM ATP/well,"Fold Induction cAMP ([1]; Table 2, 10 nM): 1.9*** (10 nM) fold; Fold Induction ATP ([2]; Table 2, 100 nM, 4 days): 1.5* fold"
CC(C)C[C@H](NC(=O)[C@H](Cc1ccccc1)NC(=O)CNC(=O)[C@H](NC(=O)[C@@H](N)Cc1ccc(O)cc1)[C@H](C)O)C(=O)N[C@H](C(=O)O)[C@@H](C)O [DTLET],4.1%,,,,"ATP (nM ATP/well) ([2]; Table 2, 10 nM, 4 days): 9.2 ± 0.9 nM ATP/well"
"C=C[C@@]1(C)CC(=O)[C@]2(O)[C@@]3(C)[C@@H](O)CCC(C)(C)[C@@H]3[C@H](O)[C@H](OC(C)=O)[C@@]2(C)O1 [Forskolin, forskolin]",,,,,"fold induction at 1 µM ([1]; Mus musculus, Neural stem cell, 0.25 h, read-out: Fold Induction cAMP): 3.1; cAMP (pmol/well) ([1]; Table 1, 1000 nM, after 15 minutes): 0.07 ± 0.01 pmol/well; fold induction at 1 µM ([2]; Mus musculus, Neural stem cell, 96 h, read-out: Fold Induction ATP): 1.1; ATP (nM ATP/well) ([2]; Table 1, 1000 nM, 4 days in culture): 10.4 ± 2.4 nM ATP/well; fold induction at 10 µM (Adult neural stem cells; Mus musculus, Neural stem cell, read-out: Fold Induction (Doublecortin-positive cells)): 2.5; % Doublecortin-positive cells (Adult neural stem cells; 10 μM): 6.3%"
CNC(=O)[C@H]1O[C@@H](n2cnc3c(N)ncnc32)[C@H](O)[C@@H]1O [MECA],,,,7.4 ± 0.7 nM ATP/well,"cAMP (pmol/well) [1, 4]: 3.89 ± 1.00 pmol/well; Fold Induction cAMP ([1]; Table 2, 100 nM): 2.1* fold; Fold Induction ATP ([2]; Table 2, 100 nM, 4 days): 1.6** fold; % Doublecortin-positive cells (Adult neural stem cells; 10 μM): 2.2%; Fold Induction (Doublecortin-positive cells) (Adult neural stem cells; 10 μM): 0.9 fold"
CC(C)C[C@H](NC(=O)[C@H](CCCCN)NC(=O)CNC(=O)[C@H](CC(C)C)NC(=O)[C@@H](NC(=O)[C@@H]1CSSC[C@H](N)C(=O)N[C@@H](CO)C(=O)N[C@@H](CC(N)=O)C(=O)N[C@@H](CC(C)C)C(=O)N[C@@H](CO)C(=O)N[C@@H]([C@@H](C)O)C(=O)N1)C(C)C)C(=O)N[C@@H](CO)C(=O)N[C@@H](CCC(N)=O)C(=O)N[C@@H](CCC(=O)O)C(=O)N[C@@H](CC(C)C)C(=O)N[C@@H](Cc1c[nH]cn1)C(=O)N[C@@H](CCCCN)C(=O)N[C@@H](CC(C)C)C(=O)N[C@@H](CCC(N)=O)C(=O)N[C@H](C(=O)N[C@@H](Cc1ccc(O)cc1)C(=O)N1CCC[C@H]1C(=O)N[C@@H](CCCNC(=N)N)C(=O)N[C@H](C(=O)N[C@@H](CC(N)=O)C(=O)N[C@H](C(=O)NCC(=O)N[C@@H](CO)C(=O)NCC(=O)N[C@H](C(=O)N1CCC[C@H]1C(N)=O)[C@@H](C)O)[C@@H](C)O)[C@@H](C)O)[C@@H](C)O [Thyrocalcitonin (Salmon)],3.9%,,1.5 fold,,"cAMP (pmol/well) [1, 5]: 0.63 ± 0.23 pmol/well; Fold Induction cAMP ([1]; Table 2, 1 nM): 3.8* (1 nM) fold; ATP (nM ATP/well) ([2]; Table 2, 1 nM, 4 days): 9.2 ± 0.7 nM ATP/well; Fold Induction ATP ([2]; Table 2, 1 nM, 4 days): 1.3* fold"
"N=C(N)NCCC[C@@H](N)C(=O)N[C@@H](CCCNC(=N)N)C(=O)N1CCC[C@H]1C(=O)N1C[C@H](O)C[C@H]1C(=O)NCC(=O)N[C@H](C(=O)N[C@@H](CO)C(=O)N[C@@H](C(=O)N1[C@H](C(=O)N[C@@H](CCCNC(=N)N)C(=O)O)C[C@@H]2CCCC[C@@H]21)C1Cc2ccccc2C1)C1Cc2ccccc2C1 [[D-Arg0, Hyp3, Ig15, D-Ig17, Oic8]-Bradykinin]",3.6%,0.17 ± 0.02 pmol/well,,13.1 ± 2.1 nM ATP/well,
"CC(C)C[C@H](NC(=O)[C@@H](Cc1c[nH]c2ccccc12)NC(=O)[C@H](Cc1ccc(O)cc1)NC(=O)[C@H](CO)NC(=O)[C@@H](Cc1c[nH]c2ccccc12)NC(=O)[C@@H](Cc1ccccc1)NC(=O)[C@H]1CCC(=O)N1)C(=O)N[C@@H](CCCNC(=N)N)C(=O)N1CCC[C@H]1C(=O)NCC(N)=O [[D-pGlu1,D-Phe2, D-Trp3,6]-LH-RH] ([d(pGlu)][dF][dW]SY[dW]LRPG-NH2; C-terminus assumed)",3.4%,,,11.1 ± 0.4 nM ATP/well,"cAMP (pmol/well) [1, 5]: 0.07 ± 0.02 pmol/well"
N=C(N)NCCC[C@H](N)C(=O)N1CCC[C@H]1C(=O)N1CCC[C@H]1C(=O)NCC(=O)N[C@@H](Cc1ccccc1)C(=O)N[C@@H](CO)C(=O)N1CCC[C@H]1C(=O)N[C@@H](Cc1ccccc1)C(=O)O [[Des-Arg9]-Bradykinin],4.5%,,1.8 fold,,"cAMP (pmol/well) [1, 5]: 0.06 ± 0.01 pmol/well; Fold Induction cAMP ([1]; Table 2, 1 nM): 1.7*** fold; ATP (nM ATP/well) ([2]; Table 2, 1 nM, 4 days): 10.4 ± 1.0 nM ATP/well; Fold Induction ATP ([2]; Table 2, 1 nM, 4 days): 1.2* fold"
CC(C)C[C@H](NC(=O)[C@H](Cc1ccccc1)NC(=O)CNC(=O)CNC(=O)[C@@H](N)Cc1ccc(O)cc1)C(=O)N[C@@H](CCCNC(=N)N)C(=O)N[C@@H](CCCCN)C(=O)N[C@@H](Cc1ccc(O)cc1)C(=O)N1CCC[C@H]1C(=O)N[C@@H](CCCCN)C(=O)O [α-Neo-Endorphin] (H-YGGFLRKYPK-OH; N-terminus and C-terminus assumed),4.0%,,1.6 fold,13.8 ± 2.1 nM ATP/well,"cAMP (pmol/well) [1, 5]: 0.36 ± 0.09 pmol/well; Fold Induction cAMP ([1]; Table 2, 1 nM): 1.7* (1 nM) fold; Fold Induction ATP ([2]; Table 2, 100 nM, 4 days): 1.8** fold"
CSCC[C@H](NC(=O)[C@H](CC(C)C)NC(=O)CNC(=O)[C@@H](NC(=O)[C@H](Cc1ccccc1)NC(=O)[C@H](CO)NC(=O)[C@H](CC(=O)O)NC(=O)[C@@H](NC(=O)[C@H](CCCCN)NC(=O)[C@@H](N)Cc1c[nH]cn1)[C@@H](C)O)C(C)C)C(N)=O [α-Neurokinin],4.6%,0.11 ± 0.03 pmol/well,,11.0 ± 1.4 nM ATP/well,
"CSCC[C@H](NC(=O)[C@H](CCCNC(=N)N)NC(=O)[C@H](Cc1ccc(O)cc1)NC(=O)[C@@H]1CCCN1C(=O)CNC(=O)[C@H](CCC(=O)O)NC(=O)[C@H](CC(=O)O)NC(=O)[C@H](CCCCN)NC(=O)[C@H](CCCCN)NC(=O)[C@H](CCC(=O)O)NC(=O)[C@H](C)N)C(=O)N[C@@H](CCC(=O)O)C(=O)N[C@@H](Cc1c[nH]cn1)C(=O)N[C@@H](Cc1ccccc1)C(=O)N[C@@H](CCCNC(=N)N)C(=O)N[C@@H](Cc1c[nH]c2ccccc12)C(=O)NCC(=O)N[C@@H](CO)C(=O)N1CCC[C@H]1C(=O)N1CCC[C@H]1C(=O)N[C@@H](CCCCN)C(=O)N[C@@H](CC(=O)O)C(=O)O [β-MSH, β-Melanocyte Stimulating Hormone]",4.1%,0.23 ± 0.02 pmol/well,,13.6 ± 1.6 nM ATP/well,
"KYGQVPMCDAGEQCAVRKGARIGKLCDCPRGTSCNSFLLKCL (disulfide 8-26, 14-34, 28-41) [CART (61-102)]",4.7%,0.13 ± 0.02 pmol/well,1.8 fold,8.3 ± 0.4 nM ATP/well,"Fold Induction cAMP ([1]; Table 2, 10 nM): 1.2* (10 nM) fold; Fold Induction ATP ([2]; Table 2, 100 nM, 4 days): 1.2** fold"
